Measurements published in patent US4255183A, “Substituted phenyl urea and herbicides for use in paddy field” (Hokko Chemical Industry Co., Ltd., priority 1977, dated 1981).
Like-named read-outs stand apart in the source and are kept apart here.

Assays:
paddy rice [1] = test: Test Example 5: Wagner pot test, chemical injury on paddy rice; assay type: in vivo, paddy rice (Asahi species); note: key: 5: Completely killed; 4: Considerably injured; 3: Moderately injured; 2: A little injured; 1: Slightly injured; 0: Not injured
Protocol: (§1) In a 1/7500 are Wagner pot, sieved paddy field soil (alluvial soil) was charged. Thereafter, in the center portion of the pot, 2 roots of paddy rice (Asahi species) at the 2- to 3-leaf stage were transplanted and 20 seeds of Bulrush per pot were seeded in the surface of the above soil. The pot was submerged at the depth of about 2 cm. The other Dopatrium junceum and umbrella plant were generated naturally. After seeding, when each of the weeds reached the same leaf age as defined in Table 5 given herein, a predetermined concentration of the emulsion prepared according to Example 4 was applied dropwise on the surface of the pot. The test was carried out by repeating the same test three times per area and the results were determined 20 days after the application of the chemicals with regard to the herbicidal effect and chemical injury on paddy rice on the basis of the evaluation index as shown below.
(§2) As the comparative chemicals Molinate, Benthiocarb and DCMU, those commercially available were used.

Bulrush = test: Test Example 5: Wagner pot test, herbicidal effect on Bulrush; assay type: in vivo
Protocol: as §1, §2
(§3) In the above table, the inhibition rate was calculated according to the method as described in Test Example 1.

[2] = tested on: Echinochloa crus-galli var. oryzicola; test: Test Example 2: concrete pot test on killing effect, Echinochloa crus-galli var. oryzicola; assay type: in vivo; details: Echinochloa crus-galli, 720 h
Protocol: (§4) In a Wagner pot of 1/500 are, paddy field soil (alluvial soil) was placed and 50 seeds of Echinochloa crus-galli var. oryzicola and 30 seeds of paddy rice were seeded in the surface layer of said soil and the submerging depth was kept at about 1 cm. When Echinochloa crus-galli var. oryzicola reached at the one leaf stage and 5-leaf stage, the emulsion of a predetermined concentration, prepared according to Example 4 was added dropwise. After 30 days from the treatment with the chemical, dry weights of Echinochloa crus-galli var. oryzicola and paddy rice were measured and the inhibition rate was calculated with reference to untreated area. [formula]
(§5) In a concrete pot of 1/400 are (50 cm×50 cm), paddy field soil (alluvial soil) was placed and 200 seeds of Echinochloa crus-galli var. oryzicola were seeded in 10 surface layer of said soil and the soil was submerged at about 3 cm depth. Before emergence of Echinochloa crus-galli var. oryzicola, paddy rice at 2.5-leaf stage (Asahi species) was transplanted at the rate of 8 stubs per pot, planting 3 seedlings per stub. At the one-leaf stage (3.5 leaves stage of paddy rice) and 5 leaves stage (7 leaves stage of paddy rice) of Echinochloa crus-galli var. oryzicola, the granule prepared according to Example 1 was applied. […] 30 Days after the treatment with the chemical, examination was made in the similar manner as Test Example 1 to obtain results as shown in Table 2.
(§6) In the table, as the comparative chemicals CPN, Benthiocarb, Molinate and Simetryne, those commercially available were used and the comparative chemicals A and B (as mentioned before) used were prepared according to the process for preparing the compound of this invention.

[3] = tested on: Echinochloa crus-galli var. oryzicola; test: Test Example 4: field test in submerged directly seeded paddy field, Echinochloa crus-galli var. oryzicola; assay type: in vivo; details: Echinochloa crus-galli, 504 h; 300 g/10 are, emulsion, 2- to 3-leaf stage, 21 days after application; read-out: Inhibition (%) of E. crus-galli var. oryzicola
Protocol: as §4
(§7) In a 10 m^2 paddy field, 30 g of Echinochloa crus-galli var. oryzicola seeds were seeded at the time of puddling and the depth of submerging was kept at 3-5 cm. 3 Days after the puddling, 50 g of paddy rice at the emergence stage (Asahi species) were seeded. When Echinochloa crus-galli var. oryzicola and paddy rice reached a 2- to 3-leaf stage, a predetermined dose of the emulsion prepared according to Example 4 was applied uniformly by means of a manual spraying machine. Test results were examined 21 days after the application of the chemicals in the similar manner as in Test Example 1.
(§8) The comparative chemical 1 used was that commercially available and the comparative chemical 2 used was prepared according to Example 4.

paddy rice [4] = test: whole plant or invertebrate; assay type: in vivo, paddy rice (Asahi species); details: Oryza sativa, 720 h
Protocol: as §4, §5, §6

Umbrella plant = test: Test Example 5: Wagner pot test, herbicidal effect on umbrella plant; assay type: in vivo; details: 20 days after application
Protocol: as §1, §2, §3

Dopatrium junceum = test: Test Example 5: Wagner pot test, herbicidal effect on Dopatrium junceum; assay type: in vivo
Protocol: as §1, §2, §3

paddy rice [5] = test: Test Example 4: field test in submerged directly seeded paddy field, paddy rice; assay type: in vivo, paddy rice (Asahi species); details: Oryza sativa, 504 h; 300 g/10 are, emulsion, 2- to 3-leaf stage, 21 days after application
Protocol: as §4, §7, §8

[6] = 600 g/10a, 3 tillers, 20 days after application
[7] = 600 g/10a, leaf age 3, 20 days after application
[8] = 600 g/10a, leaf age 3-5, 20 days after application
[9] = read-out: Inhibition (%) by treatment at 1-leaf stage of E. crus-galli var. oryzicola, E. crus-galli var. oryzicola
[10] = read-out: Inhibition (%) by treatment at 5-leaf stage of E. crus-galli var. oryzicola, E. crus-galli var. oryzicola
[11] = read-out: Inhibition (%) by treatment at 1-leaf stage of E. crus-galli var. oryzicola, paddy rice
[12] = read-out: Inhibition (%) by treatment at 5-leaf stage of E. crus-galli var. oryzicola, paddy rice
[13] = 600 g/10a, leaf age 2 (first group of columns)
[14] = 600 g/10a, leaf age 2 (second group of columns)
[15] = 600 g/10a, leaf age 2, 20 days after application
[16] = 300 g/10a, leaf age 3, 20 days after application

Structure (SMILES)	Chemical injury on paddy rice (paddy rice [1]; [6])	Chemical injury on paddy rice (paddy rice [1]; [7])	Weed kill degree, Bulrush (Bulrush; [7])	Weed kill degree, Bulrush (Bulrush; [8])	inhibition at 3000 g/ha [2, 9] [%]	inhibition at 9000 g/ha [2, 9] [%]	inhibition at 3000 g/ha [2, 10] [%]	inhibition at 9000 g/ha [2, 10] [%]	inhibition at 3000 g/ha [3] [%]	inhibition at 3000 g/ha (paddy rice [4]; [11]) [%]	inhibition at 9000 g/ha (paddy rice [4]; [11]) [%]	inhibition at 3000 g/ha (paddy rice [4]; [12]) [%]	inhibition at 9000 g/ha (paddy rice [4]; [12]) [%]	Weed kill degree, Umbrella plant (Umbrella plant; [13])	Weed kill degree, Umbrella plant (Umbrella plant; [14])	Weed kill degree, Dopatrium junceum (Dopatrium junceum; [15])	Weed kill degree, Dopatrium junceum (Dopatrium junceum; [7])	inhibition at 3000 g/ha (paddy rice [5]) [%]	further results
CCN(CC)C(=O)SCc1ccc(Cl)cc1 [Benthiocarb, 4-chlorobenzyl-N,N-diethylthiolcarbamate]	0	2	2 (60-79)	4 (90-99)	100	100	6	23	76	10	46	0	10	5 (100)	5 (100)	5 (100)	5 (100)	15	inhibition at 1000 g/ha [2, 9]: 82%; inhibition at 1000 g/ha [2, 10]: 0%; inhibition at 1000 g/ha (paddy rice [4]; [11]): 0%; inhibition at 1000 g/ha (paddy rice [4]; [12]): 0%
CCSC(=O)N1CCCCCC1 [Molinate, s-ethyl hexahydro-1H-azepine-1-carbothioate]	0	0	5 (100)	2 (60-79)	100	100	13	31	83	8	36	0	8	1 (40-59)	5 (100)	5 (100)	5 (100)	12	Chemical injury on paddy rice (paddy rice [1]; 300 g/10a, 3 tillers, 20 days after application): 0; Chemical injury on paddy rice (paddy rice [1]; [16]): 0; Weed kill degree, Bulrush (Bulrush; [16]): 0 (less than 39); Weed kill degree, Bulrush (Bulrush; 300 g/10a, leaf age 3-5, 20 days after application): 1 (40-59); inhibition at 1500 g/ha [2, 9]: 86%; inhibition at 1500 g/ha [2, 10]: 0%; inhibition at 1500 g/ha (paddy rice [4]; [11]): 0%; inhibition at 1500 g/ha (paddy rice [4]; [12]): 0%; Weed kill degree, Umbrella plant (Umbrella plant; 300 g/10a, leaf age 2 (first group of columns)): 1 (40-59); Weed kill degree, Umbrella plant (Umbrella plant; 300 g/10a, leaf age 2 (second group of columns)): 4 (90-99); Weed kill degree, Dopatrium junceum (Dopatrium junceum; 300 g/10a, leaf age 2, 20 days after application): 2 (60-79); Weed kill degree, Dopatrium junceum (Dopatrium junceum; [16]): 4 (90-99)
